For orientation: IC50 means the midpoint of a concentration-inhibition curve. For orientation: inhibition means how much of the control response was suppressed.

This assay addresses T1, FLT3 (Homo sapiens, UniProt P36888).
T1 sequence (P36888 27-993): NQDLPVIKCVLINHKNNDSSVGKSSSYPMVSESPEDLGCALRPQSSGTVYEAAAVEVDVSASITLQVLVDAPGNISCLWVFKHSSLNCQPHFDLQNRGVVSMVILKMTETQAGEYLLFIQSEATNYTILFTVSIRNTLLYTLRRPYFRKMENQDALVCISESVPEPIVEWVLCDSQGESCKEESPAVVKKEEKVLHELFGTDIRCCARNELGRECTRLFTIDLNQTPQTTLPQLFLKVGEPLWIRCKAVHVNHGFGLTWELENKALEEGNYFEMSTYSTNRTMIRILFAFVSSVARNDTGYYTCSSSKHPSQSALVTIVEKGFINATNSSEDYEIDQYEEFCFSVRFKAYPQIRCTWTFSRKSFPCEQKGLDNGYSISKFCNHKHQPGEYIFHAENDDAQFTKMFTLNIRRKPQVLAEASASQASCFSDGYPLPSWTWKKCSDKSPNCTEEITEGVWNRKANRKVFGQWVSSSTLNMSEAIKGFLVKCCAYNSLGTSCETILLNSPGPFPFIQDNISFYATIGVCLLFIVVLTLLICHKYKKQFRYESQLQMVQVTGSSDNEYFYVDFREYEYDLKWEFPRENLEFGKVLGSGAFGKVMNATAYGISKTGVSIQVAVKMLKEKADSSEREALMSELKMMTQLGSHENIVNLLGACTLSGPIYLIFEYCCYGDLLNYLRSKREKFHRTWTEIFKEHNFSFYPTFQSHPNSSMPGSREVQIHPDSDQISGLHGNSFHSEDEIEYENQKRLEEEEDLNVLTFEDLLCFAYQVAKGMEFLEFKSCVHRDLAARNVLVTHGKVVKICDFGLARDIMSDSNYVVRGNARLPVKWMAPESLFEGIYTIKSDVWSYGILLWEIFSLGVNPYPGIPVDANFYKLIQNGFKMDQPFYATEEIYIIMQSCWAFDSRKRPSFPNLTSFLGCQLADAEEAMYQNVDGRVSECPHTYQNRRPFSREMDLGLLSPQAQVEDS
Nature of the assay: Kinase inhibition activity test, isotope labeling (γ-33P-ATP): FLT3. The assay is classed as biochemical. Particulars: for IC50: ATP 200 μM, read-out: FLT3 IC50 value (inhibitory activity value); for Activity inhibition rate Flt3 (h) / inhibition at 10 µM: test compound at a concentration of 10 μM; for inhibition at 10 µM: read-out: Activity inhibition rate Flt3 (h). As for the experimental part:
The purpose of this experiment was to test the inhibitory activity of the compound of the invention for in vitro kinase with the isotope labeling method (the γ phosphate group on ATP was labeled). In this experiment, the in vitro activity inhibition of such kinases as FLT3, VEGFR2, FLT1, FLT4, RET, c-RAF, B-RAF, c-KIT, PDGFα, PDGFβ, FGFR2, FGFR1, EphA2, EphB2, SRC, ABL, ALK and Met was tested respectively. Staurosporine was reference molecule (or referred to as positive control). The kinase inhibition activity of the test compound was expressed by half-inhibitory concentration (IC50) or the kinase activity inhibition rate of the test compound at a concentration of 10 μM. The IC50 value could be obtained by calculating the kinase activity inhibition rate of the test compound at different concentrations.
20 mM 3-(N-morpholinyl)propanesulfonic acid (MOPS); 1 mM ethylenediaminetetraacetic acid (EDTA), 0.01% Brij 35 (Brij-35), 5% glycerol, 0.1% mercaptoethanol, 1 mg/mL bovine serum albumin (BSA), 10 mM manganous dichloride solution (MnCl2), 0.1 mg/mL glutamic acid/tyrosine (4:1) polypeptide (poly(Glu, Tyr)4:1), 50 μM EAIYAAPFAKKK (substrate of FLT3), 0.33 mg/mL myelin basic protein (substrate of VEGFR2), 250 μM KKKSPGEYVNIEFG (substrate of FLT1(h)), 500 μM GGEEEEYFELVKKKK (substrate of FLT4(h)), 250 μM KKKSPGEYVNIEFG (substrate of RET), 0.66 mg/mL myelin basic protein (substrate of C-RAF), 250 μM GGMEDIYFEFMGGKKK (substrate of c-Kit), 250 μM GGMEDIYFEFMGGKKK (substrate of PDGFα), 250 μM KKKSPGEYVNIEFG (substrate of FGFR1), […] GGEEEEYFELVKKKK (substrate of SRC), 50 μM EAIYAAPFAKKK (substrate of ABL), 250 μM KKKSPGEYVNIEFG (substrate of ALK), 250 μM KKKSPGEYVNIEFG (substrate of Met(h)), 10 mM magnesium acetate and γ-^33 P-ATP solution, stop buffer (3% phosphate buffer), washing buffer (75 mM phosphate solution), methanol, Filtermat A membrane, FLT3, VEGFR2, FLT3, VEGFR2, FLT1, FLT4, RET, c-RAF, B-RAF, c-KIT, PDGFRα, PDGFRβ, FGFR2, FGFR1, EphA2, EphB2, SRC, ABL, ALK, Met and other kinases, and the test compounds.
Buffers (8 mM MOPS with pH value of 7.0, 0.2 mM EDTA and 10 mM MnCl2), (5-10 mU) kinases to be tested (FLT3, VEGFR2, FLT1, FLT4, RET, c-RAF, B-RAF, c-KIT, PDGFRα, PDGFRβ, FGFR2, FGFR1, EphA2, EphB2, SRC, ABL, ALK and Met), substrates of kinases to be tested (refer to experimental materials), 10 mM magnesium acetate and γ-^33 P-ATP solution, and test compounds at different concentrations were added to a reaction tube orderly. […] Reaction was terminated with 5 μL 3% phosphate buffer finally, and 10 μL reaction solution was titrated to the Filtermat A membrane; solution was washed for 3 times with 75 mM phosphate solution with each time lasting 5 minutes, and then washed once with methanol. Finally, the Filtermat A membrane was dried, and scintillation counting was performed on the membrane, with scintillation count reflecting the phosphorylation degree of the substrates, so that the activity inhibition of kinase could be characterized.

As to “1-(4-((1H-pyrazolopyrimidine-4-yl)oxy)-3-fluorophenyl)-3-(3-trifluoromethoxy)phenyl)urea [4a-8]”, the 50% inhibitory concentration (IC50) came to 38 nM and the “Activity inhibition rate Flt3 (h)” value is reported as 100%.
For the molecule “1-(4-((1H-pyrazolopyrimidine-4-yl)oxy)phenyl)-3-(methylcyclohexyl)urea [4a-20]”, the “Activity inhibition rate Flt3 (h)” value came out at 66%.
For `O=C(Nc1ccc(Oc2ncnc3[nH]ncc23)cc1)Nc1ccc(C(F)(F)F)cc1` [4a-1], the IC50 was 27 nM and the inhibition at 10 µM worked out at 100%.
For `O=C(Nc1ccc(Oc2ncnc3[nH]ncc23)cc1)Nc1ccc(Cl)c(C(F)(F)F)c1` [4a-2], the IC50 amounted to 39 nM and the “Activity inhibition rate Flt3 (h)” value was determined as 100%.
Turning to `O=C(Nc1ccc(Oc2ncnc3[nH]ncc23)cc1)Nc1cccc(C(F)(F)F)c1` [4a-6], the IC50 was 9 nM and the inhibition at 10 µM was found to be 100%.
For `CC(C)c1cccc(NC(=O)Nc2ccc(Oc3ncnc4[nH]ncc34)c(F)c2)c1` [4a-7, 1-(4-((1H-pyrazolopyrimidine-4-yl)oxy)-3-fluorophenyl)-3-(3-isopropylphenyl)urea], the half-inhibitory concentration (IC50) stood at 36 nM and the “Activity inhibition rate Flt3 (h)” value was found to be 100%.
On to `O=C(Nc1ccc(C(F)(F)F)cc1)Nc1ccc(Oc2ncnc3[nH]ncc23)c(F)c1` [4a-9, 1-(4-((1H-pyrazolopyrimidine-4-yl)oxy)-3-fluorophenyl)-3-(4-(trifluoromethyl)phenyl)urea], for which the IC50 stood at 18 nM and the “Activity inhibition rate Flt3 (h)” value stood at 100%.
For `O=C(Nc1ccc(Oc2ncnc3[nH]ncc23)c(F)c1)Nc1ccc(Cl)c(C(F)(F)F)c1` [4a-10, 1-(4-((1H-pyrazolopyrimidine-4-yl)oxy)-3-fluorophenyl)-3-(4-chloro-3-(trifluoromethyl)phenyl)urea] the same measures were 25 nM and 100%.
In the case of `O=C(Nc1ccc(Oc2ncnc3[nH]ncc23)cc1)Nc1cc(C(F)(F)F)cc(C(F)(F)F)c1` [4a-12, 1-(4-((1H-pyrazolopyrimidine-4-yl)oxy)phenyl)-3-(3,5-bis(trifluoromethyl)phenyl)urea], the IC50 came out at 61 nM and the “Activity inhibition rate Flt3 (h)” value is given as 100%.
As to `O=C(Nc1ccc(Oc2ncnc3[nH]ncc23)cc1)Nc1ccc(C(F)(F)F)cc1Cl` [4a-13], the 50% inhibitory concentration (IC50) came out at 24 nM and the “Activity inhibition rate Flt3 (h)” value worked out at 100%.
For `O=C(Nc1ccccc1)Nc1ccc(Oc2ncnc3[nH]ncc23)cc1` [4a-15, 1-(4-((1H-pyrazolopyrimidine-4-yl)oxy)phenyl)-3-phenylurea] the same measures were 89 nM and 100%.
Take `O=C(Nc1ccc(Oc2ncnc3[nH]ncc23)cc1)Nc1ccc(N2CCOCC2)cc1` [4a-16, 1-(4-((1H-pyrazolopyrimidine-4-yl)oxy)phenyl)-3-(4-morpholinylphenyl)urea]: the inhibition at 10 µM amounted to 76%.
`C[C@H](NC(=O)Nc1ccc(Oc2ncnc3[nH]ncc23)cc1)c1ccccc1` [4a-18, (S)-1-(4-((1H-pyrazolopyrimidine-4-yl)oxy)phenyl)-3-(1-phenethyl)urea]: the “Activity inhibition rate Flt3 (h)” value was 81%.
For the molecule `C[C@@H](NC(=O)Nc1ccc(Oc2ncnc3[nH]ncc23)cc1)c1ccccc1` [4a-19, (R)-1-(4-((1H-pyrazolopyrimidine-4-yl)oxy)phenyl)-3-(1-phenethyl)urea], the “Activity inhibition rate Flt3 (h)” value stood at 73%.
Take `CC(C)(C)c1cc(NC(=O)Nc2ccc(Oc3ncnc4[nH]ncc34)cc2)n(-c2ccccc2)n1` [4a-24]: the IC50 came out at 17 nM and the “Activity inhibition rate Flt3 (h)” value is 100%.
For `CC(C)(C)c1cc(NC(=O)Nc2ccc(Oc3ncnc4[nH]ncc34)cc2)on1` [4a-25] the same measures were 16 nM and 100%.
Take `CC(C)(C)c1cc(NC(=O)Nc2ccc(Oc3ncnc4[nH]ncc34)cc2)no1` [4a-26]: the concentration for half-maximal inhibition (IC50) is 8 nM and the inhibition at 10 µM was found to be 100%.
Take `O=C(Nc1ccc(Oc2ncnc3[nH]ncc23)cc1)Nc1cc(C(F)(F)F)on1` [4a-28]: the inhibition at 10 µM came to 100%.
As for `CC(C)(C)c1cc(NC(=O)Nc2ccc(Oc3ncnc4[nH]ncc34)c(F)c2)no1` [4a-31], the half-inhibitory concentration (IC50) is 5 nM and the “Activity inhibition rate Flt3 (h)” value is on record as 100%.
On to `O=C(Nc1cccc(Nc2ncnc3[nH]ncc23)c1)Nc1ccc(F)c(Cl)c1` [4b-1], for which the inhibition at 10 µM was 30%.
As for `C[C@@H](NC(=O)Nc1ccc(Nc2ncnc3[nH]ncc23)cc1)c1ccccc1` [4b-2, (R)-1-(4-(1H-pyrazolopyrimidine-4-amido)phenyl)-3-(1-phenethyl)urea], the “Activity inhibition rate Flt3 (h)” value (10 µM) is listed as 0%.
Turning to `COc1cccc(NC(=O)Nc2ccc(Nc3ncnc4[nH]ncc34)cc2)c1` [4b-3], the inhibition at 10 µM is 72%.
Consider `C[C@H](NC(=O)Nc1ccc(Nc2ncnc3[nH]ncc23)cc1)c1ccccc1` [4b-4], for which, for the setting “10 µM”, the “Activity inhibition rate Flt3 (h)” value is reported as 59%.
As for `O=C(Nc1ccc(NC(=O)N2C=NC=C3NNC=C32)cc1)Nc1ccc(Cl)c(C(F)(F)F)c1` [4b-5, 1-(4-(1H-pyrazolopyrimidine-4-amido)phenyl)-3-(4-chloro-3-(trifluoromethyl)phenyl)urea], the inhibition at 10 µM turned out to be 95%.
Still for that read-out and setting: the figure for `COc1ccc(NC(=O)Nc2ccc(NC(=O)N3C=NC=C4NNC=C43)cc2)cc1` [4b-6, 1-(4-(1H-pyrazolopyrimidine-4-amido)phenyl)-3-(4-methoxyphenyl)urea] is 81%; for `Cc1cc(C)c(NC(=O)Nc2ccc(NC(=O)N3C=NC=C4NNC=C43)cc2)c(C)c1` [4b-7, 1-(4-(1H-pyrazolopyrimidine-4-amido)phenyl)-3-(2,4,6-trimethylphenyl)urea] it is 91%; for `O=C(Nc1ccc(Sc2ncnc3[nH]ncc23)cc1)Nc1ccc(C(F)(F)F)cc1` [4c-1] it is more than 90%.
On to `O=C(Nc1ccc(Sc2ncnc3[nH]ncc23)cc1)Nc1cccc(C(F)(F)F)c1` [4c-2], for which the “Activity inhibition rate Flt3 (h)” value is recorded as more than 90%.

(Values after US9828375B2, “4-position substituted pyrazolopyrimidine derivative, and use thereof in drug preparation” (Guangxi Wuzhou Pharmaceuticals (Group) Co., Ltd., priority 2012, dated 2017).)
